Measured values: publication PMC7069248 (Chemical Science, 2019)
Values belong to the compound of their own block, whether it stands above or below them.

How the values were obtained:
[1] = molecular target: T1, Human pancreatic α-amylase (HPA) (Homo sapiens, UniProt P04746); assay: biochemical
T1 sequence (P04746 16-511): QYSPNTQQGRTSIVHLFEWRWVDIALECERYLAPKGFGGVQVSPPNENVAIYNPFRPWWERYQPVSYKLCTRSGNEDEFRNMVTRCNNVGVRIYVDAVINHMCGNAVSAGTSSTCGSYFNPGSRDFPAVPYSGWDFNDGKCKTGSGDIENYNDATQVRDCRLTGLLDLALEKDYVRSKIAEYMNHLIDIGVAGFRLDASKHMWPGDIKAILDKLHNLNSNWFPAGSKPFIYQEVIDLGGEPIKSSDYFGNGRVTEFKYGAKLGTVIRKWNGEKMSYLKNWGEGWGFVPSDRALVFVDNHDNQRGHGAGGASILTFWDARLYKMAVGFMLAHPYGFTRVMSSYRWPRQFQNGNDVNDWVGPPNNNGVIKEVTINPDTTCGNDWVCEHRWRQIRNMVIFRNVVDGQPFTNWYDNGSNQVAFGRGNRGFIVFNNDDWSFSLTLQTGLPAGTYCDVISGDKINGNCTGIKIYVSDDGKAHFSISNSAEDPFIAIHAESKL

[2] = molecular target: H. sapiens C-term sucrase-isomaltase (Homo sapiens, UniProt P14410); assay: Specificity analysis: C-term sucrase-isomaltase; type: biochemical; settings: read-out: M10 IC50; 37 °C, pH 7, PNP α-Glc
H. sapiens C-term sucrase-isomaltase, sequence (P14410 1008-1827 limits assumed): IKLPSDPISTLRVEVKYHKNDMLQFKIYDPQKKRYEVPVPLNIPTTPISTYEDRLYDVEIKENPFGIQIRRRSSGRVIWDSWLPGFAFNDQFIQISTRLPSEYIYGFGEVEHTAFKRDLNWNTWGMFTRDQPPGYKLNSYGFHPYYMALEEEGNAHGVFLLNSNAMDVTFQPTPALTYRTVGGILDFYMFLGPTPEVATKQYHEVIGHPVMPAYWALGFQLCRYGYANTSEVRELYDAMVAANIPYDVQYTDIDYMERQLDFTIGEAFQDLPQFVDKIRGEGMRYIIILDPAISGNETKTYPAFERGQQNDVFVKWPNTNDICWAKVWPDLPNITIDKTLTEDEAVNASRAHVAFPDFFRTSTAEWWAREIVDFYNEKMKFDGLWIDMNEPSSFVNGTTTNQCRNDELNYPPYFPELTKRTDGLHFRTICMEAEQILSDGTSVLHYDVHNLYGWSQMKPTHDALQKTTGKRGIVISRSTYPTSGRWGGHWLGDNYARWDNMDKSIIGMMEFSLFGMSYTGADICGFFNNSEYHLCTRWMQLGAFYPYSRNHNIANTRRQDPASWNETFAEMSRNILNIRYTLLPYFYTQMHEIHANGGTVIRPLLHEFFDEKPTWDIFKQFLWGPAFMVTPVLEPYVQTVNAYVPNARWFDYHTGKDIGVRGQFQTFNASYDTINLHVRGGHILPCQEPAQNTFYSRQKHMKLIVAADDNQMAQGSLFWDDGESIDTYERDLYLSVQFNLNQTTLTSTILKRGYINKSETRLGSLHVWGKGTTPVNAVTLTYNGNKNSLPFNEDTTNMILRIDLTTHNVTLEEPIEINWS

[3] = molecular target: T1, Human pancreatic α-amylase (HPA); settings: relative to M09
Jack bean α-mannosidase = molecular target: T2, Jack bean α-mannosidase (Canavalia ensiformis, UniProt C0HJB3); assay: Specificity analysis of M10: Jack bean α-mannosidase; type: biochemical; settings: read-out: M10 IC50; 37 °C, pH 7
T2 sequence (C0HJB3 1-981): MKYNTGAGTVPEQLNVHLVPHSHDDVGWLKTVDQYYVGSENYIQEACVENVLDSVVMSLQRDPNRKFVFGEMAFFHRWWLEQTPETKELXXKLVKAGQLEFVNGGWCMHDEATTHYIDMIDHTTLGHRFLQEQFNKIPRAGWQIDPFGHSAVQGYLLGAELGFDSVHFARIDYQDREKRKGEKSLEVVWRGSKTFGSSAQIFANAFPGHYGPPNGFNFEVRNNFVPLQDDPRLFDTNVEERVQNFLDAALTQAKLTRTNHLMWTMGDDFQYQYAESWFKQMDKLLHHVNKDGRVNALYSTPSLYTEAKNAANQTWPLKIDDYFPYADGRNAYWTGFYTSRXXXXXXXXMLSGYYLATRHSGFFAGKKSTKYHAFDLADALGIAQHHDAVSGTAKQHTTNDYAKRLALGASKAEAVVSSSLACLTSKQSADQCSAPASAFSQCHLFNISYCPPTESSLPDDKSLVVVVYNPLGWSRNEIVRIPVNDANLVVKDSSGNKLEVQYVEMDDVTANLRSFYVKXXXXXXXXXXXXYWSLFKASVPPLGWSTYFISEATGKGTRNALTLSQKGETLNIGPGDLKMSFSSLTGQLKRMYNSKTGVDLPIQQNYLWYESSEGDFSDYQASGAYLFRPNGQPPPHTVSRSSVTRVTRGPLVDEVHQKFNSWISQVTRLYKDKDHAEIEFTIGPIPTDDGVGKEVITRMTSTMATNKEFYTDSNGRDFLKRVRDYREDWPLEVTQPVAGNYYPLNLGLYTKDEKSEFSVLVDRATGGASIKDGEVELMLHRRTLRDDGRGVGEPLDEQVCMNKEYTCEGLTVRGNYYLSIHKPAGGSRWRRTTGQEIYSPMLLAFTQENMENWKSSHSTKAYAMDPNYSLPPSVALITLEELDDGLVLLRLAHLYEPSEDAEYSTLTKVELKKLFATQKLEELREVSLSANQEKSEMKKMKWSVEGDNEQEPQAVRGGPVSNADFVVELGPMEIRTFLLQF

[4] = molecular target: T3, Agrobacterium β-glucosidase (Agrobacterium sp., UniProt P12614); assay: Specificity analysis of M10: Agrobacterium β-glucosidase; type: biochemical
T3 sequence (P12614 1-459): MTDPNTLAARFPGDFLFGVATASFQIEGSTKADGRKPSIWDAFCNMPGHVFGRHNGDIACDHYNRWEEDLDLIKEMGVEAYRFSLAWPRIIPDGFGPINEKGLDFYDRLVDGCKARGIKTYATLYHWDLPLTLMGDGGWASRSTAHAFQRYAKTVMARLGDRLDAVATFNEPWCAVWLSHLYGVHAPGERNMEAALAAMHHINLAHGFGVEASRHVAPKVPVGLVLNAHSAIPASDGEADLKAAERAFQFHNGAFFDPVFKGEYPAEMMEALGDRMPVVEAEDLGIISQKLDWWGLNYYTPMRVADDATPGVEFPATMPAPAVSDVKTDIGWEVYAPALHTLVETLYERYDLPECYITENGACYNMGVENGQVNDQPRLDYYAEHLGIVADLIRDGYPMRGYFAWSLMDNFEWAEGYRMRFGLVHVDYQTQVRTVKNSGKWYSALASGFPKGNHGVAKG

[5] = molecular target: Homo sapiens maltase-glucoamylase (Homo sapiens, UniProt O43451); assay: Specificity analysis of M10: maltase-glucoamylase; type: biochemical; settings: read-out: M10 IC50; 37 °C, pH 7, PNP α-Glc
[6] = molecular target: Green coffee bean α-galactosidase (Coffea arabica, UniProt Q42656); assay: Specificity analysis of M10: green coffee bean α-galactosidase; type: biochemical; settings: read-out: M10 IC50; 37 °C, pH 7
Green coffee bean α-galactosidase, sequence (Q42656 16-378): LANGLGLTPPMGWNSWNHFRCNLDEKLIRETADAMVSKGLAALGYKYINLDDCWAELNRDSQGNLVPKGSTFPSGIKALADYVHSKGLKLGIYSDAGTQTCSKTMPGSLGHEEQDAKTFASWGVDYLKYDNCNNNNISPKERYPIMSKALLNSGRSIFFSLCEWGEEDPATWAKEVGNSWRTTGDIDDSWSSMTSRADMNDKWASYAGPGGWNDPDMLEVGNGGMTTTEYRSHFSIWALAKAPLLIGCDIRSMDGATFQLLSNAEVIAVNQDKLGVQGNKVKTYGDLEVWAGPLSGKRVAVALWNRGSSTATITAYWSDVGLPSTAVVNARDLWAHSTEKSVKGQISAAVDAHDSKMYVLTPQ

E. coli β-galactosidase = E. coli β-galactosidase (Escherichia coli, UniProt P00722); assay: Specificity analysis of M10: E. coli β-galactosidase; settings: read-out: M10 IC50; 37 °C, pH 7, 1.0 mM MgCl2
E. coli β-galactosidase, sequence (P00722 2-1024 limits assumed): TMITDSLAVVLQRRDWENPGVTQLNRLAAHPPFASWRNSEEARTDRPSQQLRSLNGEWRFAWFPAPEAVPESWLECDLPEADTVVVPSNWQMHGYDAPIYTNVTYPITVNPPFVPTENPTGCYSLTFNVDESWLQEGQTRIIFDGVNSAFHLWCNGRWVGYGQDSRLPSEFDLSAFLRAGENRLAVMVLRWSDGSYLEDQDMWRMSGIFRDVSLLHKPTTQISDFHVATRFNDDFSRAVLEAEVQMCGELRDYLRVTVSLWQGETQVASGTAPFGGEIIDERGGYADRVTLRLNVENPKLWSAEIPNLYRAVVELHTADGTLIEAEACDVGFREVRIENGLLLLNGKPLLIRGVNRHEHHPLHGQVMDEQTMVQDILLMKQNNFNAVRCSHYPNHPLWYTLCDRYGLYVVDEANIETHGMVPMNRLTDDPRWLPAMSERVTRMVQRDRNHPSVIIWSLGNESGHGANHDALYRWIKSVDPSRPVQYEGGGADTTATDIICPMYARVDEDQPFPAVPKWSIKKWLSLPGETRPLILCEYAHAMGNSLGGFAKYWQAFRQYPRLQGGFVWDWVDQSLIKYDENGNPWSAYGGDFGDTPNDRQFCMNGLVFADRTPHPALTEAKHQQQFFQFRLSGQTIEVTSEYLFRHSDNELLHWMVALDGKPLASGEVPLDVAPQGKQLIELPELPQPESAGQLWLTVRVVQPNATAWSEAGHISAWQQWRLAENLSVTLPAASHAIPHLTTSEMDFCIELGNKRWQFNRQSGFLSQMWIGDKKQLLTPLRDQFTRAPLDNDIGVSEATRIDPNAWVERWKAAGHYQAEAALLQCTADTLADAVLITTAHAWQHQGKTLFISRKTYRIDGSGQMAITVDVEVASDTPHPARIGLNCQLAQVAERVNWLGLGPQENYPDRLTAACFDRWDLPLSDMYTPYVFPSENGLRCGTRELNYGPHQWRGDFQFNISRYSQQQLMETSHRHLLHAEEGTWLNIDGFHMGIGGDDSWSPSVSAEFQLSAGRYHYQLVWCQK

Ki [1]: 110 ± 10 µM
Compound: O=C(/C=C/c1ccc(O)c(O)c1)NCCCOc1c(-c2ccc(O)c(O)c2)oc2cc(O)cc(O)c2c1=O [M03]

Ki [1]: 60 ± 10 µM
Compound: O=C(/C=C/c1ccc(O)c(O)c1)NCC(=O)NCCCOc1c(-c2ccc(O)c(O)c2)oc2cc(O)cc(O)c2c1=O [M05]

Compound: O=C(/C=C/c1ccc(O)c(O)c1)N[C@@H](Cc1ccc(O)cc1)C(=O)NCCCOc1c(-c2ccc(O)c(O)c2)oc2cc(O)cc(O)c2c1=O [M10]
IC50 [2]: > 7 µM
Further contribution to the binding affinity [3]: ~2.5 kcal mol^–1
IC50 (Jack bean α-mannosidase): > 7 µM
IC50 [4]: 35.4 ± 5.7 µM
IC50 [5]: > 7 µM
IC50 [6]: > 7 µM
IC50 (E. coli β-galactosidase): > 7 µM

Further contribution to the binding affinity [3]: ~2.5 kcal mol^–1
Ki [1]: 0.06 µM
Compound: O=C(/C=C/c1ccc(O)c(O)c1)N[C@@H](Cc1ccc(O)c(O)c1)C(=O)NCCCOc1c(-c2ccc(O)c(O)c2)oc2cc(O)cc(O)c2c1=O [M11]
